# How the values were obtained:
# PANC-1 cells = PANC-1 cells injected into the pancreas, survival and metastasis; format: in vivo, nude mice; settings: BVZ 25 μg, MIT 0.10 mg/kg, or B+M; compared with PBS
# Method: FIG. 12. Prolonged survival of mice that received treatment with BVZ and MIT in xenograft models of human pancreatic cancer. PANC-1 cells were injected into the pancreas of nude mice (17 to 20 mice/group). The mice received treatment as described in FIG. 2. The entire experiment was terminated 120 days after tumor-cell injection. A, animal survival was monitored daily until termination of the experiment. Cum, cumulative. B, tumor growth in the pancreas and metastasis in the liver and/or other organs were evaluated and expressed as the incidence (%).
# Statistical analysis. Each experiment was performed independently at least twice with similar results; one representative experiment is presented. The significance of the in vitro data was determined using Student's t-test (two-tailed), whereas the significance of the in vivo data was determined using the two-tailed Mann-Whitney U test. For the in vivo experiments, overall survival was calculated by the method of Kaplan and Meier. Log rank test was used to compare the survival duration between groups. P≦0.05 was deemed significant.
# Prolonged survival of xenograft models of human pancreatic cancer that received treatment with BVZ and MIT.
# [1] = tested on: Sp1 recruitment into the Sp1 promoter; test: ChIP assay, tumors formed by PANC-1 cells in nude mice; format: in vivo; settings: tumors from treated mice (BVZ, MIT, B+M)
# Method: FIG. 15. Effects of treatment with BVZ and MIT on Sp1 recruitment into the Sp1 promoter in human pancreatic cancer cells in vitro and in vivo. A, schematic structures of the minimal Sp1 promoters. The nucleotide positions and sequences of Sp1-binding sites and polymerase chain reaction forward and reverse primers flanking those sites for ChIP assay are shown. B, Sp1 and VEGF promoter reporter constructs were transfected into PANC-1 cells in triplicate and incubated for 12 hours. The cells were then incubated for another 24 hours in a medium alone or a medium containing 100 μg/ml BVZ or 0.1 μM MIT. Total protein lysates were harvested from the cell cultures for measurement of Sp1 and VEGF promoter activity using a luciferase assay kit. The relative Sp1 and VEGF promoter activities were assessed, and the activity in treated groups was expressed as the fold change of that in their respective control groups. C and D, chromatin was extracted from (C) PANC-1 cells that were incubated in vitro for 2 days in a medium alone or a medium containing 100 μg/ml BVZ or 0.1 μM MIT and (D) tumors formed by PANC-1 cells in nude mice that received treatment as described in FIG. 2A. […]
# [2] = tested on: Sp1, VEGF, EGFR and PDGFA expression; test: Expression of Sp1 and downstream molecules in H727 cells in vitro (Western/Northern blot); format: cell-based, human; settings: 100 μg/ml BVZ, 5 days
# Method: FIG. 16. […] H727 cells were incubated in medium or medium containing 0.36 μM MIT for 24 hours. mRNA was extracted for Northern blot analysis of Sp1 expression (A1). H727 and BON-1 cells were incubated in medium or medium containing 0-0.36 μM MIT for 1 to 24 hours. […] B. Chromatin was prepared from the cells and ChIP assay was performed as described in Materials and Methods.
# FIG. 18. Effects of treatment with BVZ and MIT on the growth of and gene expression in human carcinoid cells in vitro. A. H727 and BON-1 cells were incubated for 5 days in a medium alone or a medium containing 25 to 100 μg/ml BVZ. The viable cells were counted. B. H727 cells were incubated for 5 days in a medium alone or a medium containing 100 μg/ml BVZ. Total protein lysates were harvested from the cell cultures, and the level of Sp1 and VEGF protein expression was determined using Western blot analysis. Equal protein-sample loading was monitored by probing the same membrane filter with an anti-GAPDH. C. […] Cytotoxicity was assessed using the MTT assay.
# Western blot analysis. […] Equal protein-sample loading was monitored by probing the same membrane filter with an antibody against glyceraldehyde-3-phosphate dehydrogenase (GAPDH) (21). The probe proteins were detected using the Amersham enhanced chemiluminescence system according to the manufacturer's instructions. […]
# BON-1 cells = test: BON-1 carcinoid subcutaneous xenograft
# Method: H727 and BON-1 cells were injected into the subcutis of nude mice (n=5). When tumors reached around 4 mm in diameter, the animals received different doses of MIT (0.10 [M-10], 0.20 [M-20], and 0.40 [M-40] mg/kg) via intraperitoneal injection twice a week. Tumors were measured once every week, and at each measurement, the mean±standard deviation (SD) tumor volume in the five mice in each group was calculated (A).
# H727 and BON-1 cells were injected subcutaneously into nude mice. […] A. Tumors were measured once every week, and at each measurement, the mean±SD tumor volume in the five mice in each group was calculated. B. Mouse body weights were measured. The asterisks indicate the statistical significance (P<0.01) in a comparison between the treated and respective control groups.
# Mithramycin-A (MIT, 1 mg/vial crystal powder; lot 055K4011) was purchased from Sigma Chemical Co. (St. Louis, Mo.) and diluted in sterile water. BVZ (25 mg/ml; NDC 50242-060-01) from Genentech, Inc. (South San Francisco, Calif.) was purchased. For animal experiments, MIT (0.1 to 0.4 mg/kg body weight) and BVZ (25 to 100 μg/mouse) were administered by intraperitoneal or subcutaneous injections twice a week or as otherwise stated.
# Female athymic BALB/c nude mice were purchased from The Jackson Laboratory (Bar Harbor, Me.). The mice were housed in laminar flow cabinets under specific pathogen-free conditions and used when they were 8 weeks old.
# H727 and BON-1 tumor cells were injected into the subcutis of mice as described in the Materials and Methods. […] Moreover, the residual tumors were harvested and angiogenesis was assessed by CD31 staining.
# Synergistic antitumor effects of BVZ and MIT in human LGNET model. […] To test this hypothesis, we determined whether modulating Sp1 expression and/or activity impacts the efficacy of anti-angiogenic treatment of BVZ. […]
# H727 and BON-1 cells were injected subcutaneously into nude mice and then administered treatment to them as described in FIG. 20. We monitored animal survival daily until termination of the experiment 160 days after tumor-cell injection.
substance,measurement,setting,value
bevacizumab [BVZ],animal survival,PANC-1 cells,slightly increased survival rate
same,Sp1 recruitment to its own promoter,[1],significantly increase Sp1 recruitment to its own promoter
same,expression of Sp1 and VEGF,[2],"did not affect the expression of Sp1 or its major downstream molecule, VEGF"
same,antitumor activity at low dose,"BON-1 cells; BVZ 25 μg, MIT 0.10 mg/kg, alone or combined, i.p. twice a week",marginal antitumor activity
same,body weight,BON-1 cells; BVZ alone,no discernable effects on body weight
same,animal survival,"BON-1 cells; compared with PBS, 160 days",slightly increased survival rate
